According to patent US20210087172A1, “FACTOR XIIa INHIBITORS” (UNIVESITY OF LEEDS, priority 2018, published 2021):

What was measured:
Assay type in all cases: biochemical
FXa (human) = FXa (human) (Homo sapiens, UniProt P00742); assay: Determination of selectivity: FXa chromogenic assay (S2765 substrate); conditions: fold selectivity for FXIIa over FXa; FXa 5 nM, S2765 350 μM
Description: (§1) The activities of the compounds of the invention have been determined in vitro using the following assays protocols for the screening of activity of FXIa and other proteases. Each of these assays were performed in a purified system employing the use of chromogenic assays in microplate plate wells. Chromogenic peptide substrates mimicking natural protein substrates are attached via an amide bond to a chromogenic group. Paranitroaniline (pNA) is released from the peptide following catalyses by the proteolytic enzyme; the absorbance increases and can be monitored at 405 nm.
(§2) All compounds were dissolved in 100% (v/v) DMSO to a stock concentration of 10 mM, the highest concentration of compound used in each assay is 500 μM. The final concentrations of DMSO were 5% (v/v) in 50 mM Tris 137 mM NaCl pH 7.4. Where no test compound was added a final concentration of 5% DMSO was employed.
(§3) To determine selectivity of test compounds, these test compounds were assayed for inhibitory activity against other serine proteases including FXa and thrombin. Essentially compounds at increasing concentrations were incubated with each enzyme: FXa (5 nM) and thrombin (5 nM), for 10 mins at 37° C. followed the appropriate chromogenic substrate, S2765 (350 μM), and GPR (250 μM) respectively in 50 mM Tris, 137 mM NaCl, pH 7.4. Chromogenic substrates S2765 was from Chromogenix, and GPR from Bachem. Kinetic readings at 405 nm were monitored every 12 secs for a total duration of 3 hours at 37° C. Gradients of initial rates were determined and employed to calculate IC50 values. Values of IC50 were converted to Ki values based on the formula:
(§4) Ki=IC50/(1+[Substrate]/Km)
(§5) Where [Substrate] denotes the concentration of substrate used in the assay and Km is the determined value of each enzyme with its own substrate.
The fold selectivity for FXIIa over FXa for the compounds of the invention has been categorised based on the fold selectivity values, the categories being “o”, “oo” and “ooo”. The category “o” refers to fold selectivity values less than 10. The category “oo” refers to a fold selectivity value of 10 to 100. The category “ooo” refers to fold selectivity values greater than 100.

Thrombin (human) = biological target: T1, Thrombin (human) (Homo sapiens, UniProt P00734); assay: Determination of selectivity: thrombin chromogenic assay (GPR substrate); conditions: fold selectivity for FXIIa over thrombin; thrombin 5 nM, GPR 250 μM
T1 construct: FXa (5 nM) and thrombin (5 nM)
Description: as §1, §2, §3, §4, §5
The fold selectivity for FXIIa over thrombin for the compounds of the invention has been categorised based on the fold selectivity values, the categories being “+”, “++” and “+++”. The category “+” refers to fold selectivity values less than 10. The category “++” refers to a fold selectivity value of 10 to 100. The category “+++” refers to fold selectivity values greater than 100.

FXIIa alpha (Human) = biological target: T2, FXIIa alpha (Human) (Homo sapiens, UniProt P00748); assay: Determination of Factor XIIa inhibition, chromogenic substrate S-2302; conditions: 10 nM FXIIa, 450 μM S-2302, 37° C., pH 7.4; Ki converted from IC50
T2 construct: FXIIa alpha
T2 sequence (P00748 373-615 limits assumed): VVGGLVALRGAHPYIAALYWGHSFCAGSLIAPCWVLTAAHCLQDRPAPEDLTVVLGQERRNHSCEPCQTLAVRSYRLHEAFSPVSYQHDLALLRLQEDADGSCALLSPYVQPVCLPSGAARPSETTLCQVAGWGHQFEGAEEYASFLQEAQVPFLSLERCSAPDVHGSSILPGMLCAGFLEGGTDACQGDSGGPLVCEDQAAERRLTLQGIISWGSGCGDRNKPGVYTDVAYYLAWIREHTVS
T2 sequence (P00748 20-372 partner limits assumed): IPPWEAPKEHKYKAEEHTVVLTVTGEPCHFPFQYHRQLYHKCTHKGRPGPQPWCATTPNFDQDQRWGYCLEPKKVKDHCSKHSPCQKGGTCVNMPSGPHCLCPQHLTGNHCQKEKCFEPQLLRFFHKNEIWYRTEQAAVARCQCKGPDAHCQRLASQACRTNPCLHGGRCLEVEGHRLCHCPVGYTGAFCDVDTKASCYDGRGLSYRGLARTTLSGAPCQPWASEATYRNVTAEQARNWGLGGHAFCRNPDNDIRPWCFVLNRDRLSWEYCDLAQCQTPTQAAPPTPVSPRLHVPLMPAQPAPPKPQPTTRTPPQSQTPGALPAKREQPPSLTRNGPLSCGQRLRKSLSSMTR
Description: as §1, §2
Factor XIa activity was measured using a chromogenic substrate S-2302 (Chromogenix). Various concentrations of compound were incubated with 10 nM of FXIIa and incubated at 37° C. for 10 minutes in 50 mM Tris, 137 mM NaCl, pH 7.4, prior to the addition of a final concentration of 450 μM S-2302 chromogenic substrate. Kinetic readings at 405 nm were monitored every 12 secs for a total duration of 3 hours at 37° C. Gradients of initial rates were determined and employed to calculate IC50 values. Values of IC50 were converted to Ki values based on the formula:
as §4
The activity of the compounds of the invention has been categorised based on the Ki values, the categories being “*”, “**” and “***”. […] The category refers to compounds with a Ki value of 0.2 μM to 2 μM.

Chain of FXa (human) (P00742 235-488 limits assumed): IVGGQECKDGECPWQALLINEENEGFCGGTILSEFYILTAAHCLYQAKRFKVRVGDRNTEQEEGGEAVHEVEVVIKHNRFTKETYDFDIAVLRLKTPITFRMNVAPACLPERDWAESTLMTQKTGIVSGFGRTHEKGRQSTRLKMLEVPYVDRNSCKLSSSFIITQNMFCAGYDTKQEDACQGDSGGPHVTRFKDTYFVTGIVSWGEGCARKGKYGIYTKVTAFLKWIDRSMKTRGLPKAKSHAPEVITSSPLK
Chain of FXa (human) (P00742 41-179 partner limits assumed): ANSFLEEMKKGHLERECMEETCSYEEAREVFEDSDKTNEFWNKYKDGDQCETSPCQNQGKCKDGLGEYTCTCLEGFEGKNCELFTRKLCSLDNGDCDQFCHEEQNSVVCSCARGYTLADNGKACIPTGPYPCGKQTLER

| Compound | Ki (FXIIa alpha (Human)) [µM] | FXa (human)/FXIIa alpha (human) fold selectivity (FXa (human)) | Thrombin (human)/FXIIa alpha (human) fold selectivity (Thrombin (human)) |
| --- | --- | --- | --- |
| Cc1ccc(OC(=O)N2CCN(C(=O)[C@H](N)CCc3ccccc3)[C@H](C(=O)NCc3ccc4c(c3)nnn4C)C2)cc1 [Compound M00934] | > 2 | oo (a fold selectivity value of 10 to 100) | ++ (a fold selectivity value of 10 to 100) |
| O=C(NCc1cc2ccncc2[nH]1)[C@@H]1CN(C(=O)OCc2ccccc2)CCN1C(=O)[C@H]1C[C@@H](c2ccccc2)CN1 [Compound M00950] | 0.2 to 2 | oo (a fold selectivity value of 10 to 100) | ++ (a fold selectivity value of 10 to 100) |
| N[C@H](CCC(=O)N1CCCC1)C(=O)N1CCN(C(=O)OCc2ccccc2)C[C@H]1C(=O)NCc1cc2ccncc2[nH]1 [Compound M00951] | 0.2 to 2 | oo (a fold selectivity value of 10 to 100) | ++ (a fold selectivity value of 10 to 100) |
| NCc1ccc(CNC(=O)[C@@H]2CN(C(=O)OCc3ccccc3)CCN2C(=O)[C@H](N)CCc2ccccc2)cc1 [Compound M05086] | > 2 | oo (a fold selectivity value of 10 to 100) | ++ (a fold selectivity value of 10 to 100) |
| Cn1nnc2cc(CNC(=O)[C@@H]3CN(C(=O)OCc4ccccc4)CCN3C(=O)[C@H](N)CCc3ccccc3)ccc21 [Compound M05098, (S)-4-((R)-2-Amino-4-phenyl-butyryl)-3-[(1-methyl-1H-benzotriazol-5-ylmethyl)-carbamoyl]-piperazine-1-carboxylic acid benzyl ester] | > 2 | oo (a fold selectivity value of 10 to 100) | ++ (a fold selectivity value of 10 to 100) |
| Nc1noc2cc(CNC(=O)[C@@H]3CN(C(=O)OCc4ccccc4)CCN3C(=O)[C@H](N)CCc3ccccc3)ccc12 [Compound M05124] | > 2 | oo (a fold selectivity value of 10 to 100) | + (fold selectivity values less than 10) |
| CN(C)[C@H](CCC(=O)N1CCCC1)C(=O)N1CCN(C(=O)OCc2ccccc2)C[C@H]1C(=O)NCc1ccc2[nH]cnc2c1 [Compound M05217] | > 2 | oo (a fold selectivity value of 10 to 100) | ++ (a fold selectivity value of 10 to 100) |
| Cn1nnc2cc(CNC(=O)[C@@H]3CC(Oc4ncccn4)CCN3C(=O)[C@H](N)CCC(=O)N3CCCC3)ccc21 (stereo partly drawn) [Compound M05252] | > 2 | oo (a fold selectivity value of 10 to 100) | ++ (a fold selectivity value of 10 to 100) |
| Cn1nnc2cc(CNC(=O)[C@@H]3CN(C(=O)OCc4ccccc4)CCN3C(=O)[C@H]3C[C@@H](c4ccccc4)CN3)ccc21 [Compound M05276] | > 2 | oo (a fold selectivity value of 10 to 100) | ++ (a fold selectivity value of 10 to 100) |

Further lines, with some results ahead:

| Ki (FXIIa alpha (Human)) [µM] | Compound | FXa (human)/FXIIa alpha (human) fold selectivity (FXa (human)) | Thrombin (human)/FXIIa alpha (human) fold selectivity (Thrombin (human)) |
| --- | --- | --- | --- |
| < 0.2 | N[C@H](CCC(=O)N1CCCC1)C(=O)N1CCN(C(=O)OCc2ccccc2)C[C@H]1C(=O)NCc1cc2cnccc2[nH]1 [Compound M00971] | ooo (fold selectivity values greater than 100) | +++ (fold selectivity values greater than 100) |
| 0.2 to 2 | Nc1cc(CNC(=O)[C@@H]2CN(C(=O)OCc3ccccc3)CCN2C(=O)[C@H](N)CCC(=O)N2CCCC2)ccn1 [Compound M05209] | oo (a fold selectivity value of 10 to 100) | +++ (fold selectivity values greater than 100) |
| > 2 | Cn1nnc2cc(CNC(=O)[C@@H]3CN(C(=O)OCc4ccccc4)CCN3C(=O)[C@H](N)CCC(=O)N3CCCC3)ccc21 [Compound M05212] | ooo (fold selectivity values greater than 100) | +++ (fold selectivity values greater than 100) |
| > 2 | N[C@H](CCC(=O)N1CCCC1)C(=O)N1CCN(C(=O)OCc2ccccc2)C[C@H]1C(=O)NCc1ccc2[nH]cnc2c1 [Compound M05213] | oo (a fold selectivity value of 10 to 100) | ++ (a fold selectivity value of 10 to 100) |
| > 2 | Cn1nnc2cc(CNC(=O)[C@@H]3C[C@@H](c4ccccc4)CCN3C(=O)[C@H](N)CCC(=O)N3CCCC3)ccc21 [Compound M05375] | oo (a fold selectivity value of 10 to 100) | ++ (a fold selectivity value of 10 to 100) |
| > 2 | Cn1nnc2cc(CNC(=O)[C@@H]3C[C@H](c4ccccc4)CCN3C(=O)[C@H](N)CCC(=O)N3CCCC3)ccc21 [Compound M05385] | oo (a fold selectivity value of 10 to 100) | ++ (a fold selectivity value of 10 to 100) |
